Test [1] relates to Sca-1^+/lin^−/CD45^− murine bone marrow VSELs. Description: Ex vivo expansion of murine VSELs. It counts as cell-based. The conditions noted are these: 1 mM VPA with 10 U/ml LH and 10 U/ml FSH in D-MEM, 5% FBS; feeder-free; at 2 months. How it is done:
Murine VSELs were isolated by multi-parameter sorting using a MOFLOW™ XDP sorter (Beckman Coulter, Inc., Indianapolis, Indiana, United States of America). Highly purified Sca-1^+/lin^−/CD45^− murine bone marrow VSELs were cultured in D-MEM culture medium containing 5% fetal bovine serum (FBS) supplemented with 10 U/ml luteinizing hormone (LH) and 10 U/ml follicle-stimulating hormone (FSH) in a humidified incubator maintained at 37° C. with 5% CO2. VSELs were exposed to the HDAC inhibitor valproic acid (VPA; Sigma Aldrich, St. Louis, Missouri, United States of America) at a concentration of 1 mM. The cultures were supplemented with fresh LH and FSH every third day. The cultures were maintained for approximately two (2) months.

Test [2] deals with Human UCB-derived VSELs (CD133^+/lin^−/CD45^− cells). Description: Ex vivo expansion of human UCB-derived VSELs. To be noted: VPA (1 mM), LH (10 U/ml), FSH (10 U/ml), TGFβ (10 ng/ml) in D-MEM, 10% FBS; at 2 months. It is filed as cell-based. How it is done: Human UCB-derived VSELs were isolated by multi-parameter sorting using a MOFLOW™ XDP sorter (Beckman Coulter, Inc.). Small CD133^+/lin^−/CD45^− cells were plated in 96 well plates in D-MEM medium supplemented with 10% FBS in the presence of VPA (1 mM), LH (10 U/ml), FSH (10 U/ml) and transforming growth factor beta (TGFβ; 10 ng/ml). Cells were cultured for two (2) months in a humidified incubator at 37° C., 5% CO2. Fresh medium was added every 7 days.

Each structure is given as a SMILES string.

With `CCCC(CCC)C(=O)O` [VPA, valproic acid], the “average expansion of sorted purified murine VSELs as compared to day 0” value in test [1] is 21±3 fold. For the same compound, in test [2], the “average expansion of sorted purified human VSELs as compared to day 0” value was 32±5 fold.

Source of the values: patent US12116592B2, “Methods and compositions for ex vivo expansion of very small embryonic-like stem cells (VSELs)” (University of Louisville Research Foundation, Inc., priority 2016, dated 2024).
